Experimental data reported in US20230016526A1, “SYSTEM AND METHODS FOR MANIPULATION OF THE ORAL MICROBIOME IN MAMMALS” (ANIMAL MICROBIOME ANALYTICS, INC. (D/B/A ANIMALBIOME), priority 2019, published 2023).

System: cat's oral microbiome
Experiment: Microbial diversity metrics in sequential oral samples of a cat after a dental procedure with cefovecin sodium
Format: in vivo
Details: tooth extraction and cefovecin sodium; for PD Evenness: Before 0.53; for HA Evenness: Before 0.62; for PD/HA Evenness: Before 0.85; for PD/HA Diversity: Before 1.21; for PD/HA Richness: Before 1.32; for HA Diversity: Before 1.87; for PD Diversity: Before 2.26; for Pathobiont Richness: Before 3; for HA Richness: Before 31; for PD Richness: Before 41
Experimental: Alpha diversity metrics (Amplified Sequence Variant Richness, Shannon Diversity, and Pielou's Evenness) were calculated for a subset of periodontal disease-associated bacteria (PD) and a subset of health-associated bacteria (HA). The range for PD richness in healthy cats and dogs is 0-39. The range for health richness in healthy cats and dogs is 20-50. For comparison, oral health of each individual was also assessed by examination by a veterinary technician and or a veterinarian and observations of oral health and breath were record as shown in the table below.
Microbial diversity metrics were assessed for three sequential samples collected from a cat with advanced periodontal disease with tooth resorption prior to a dental cleaning to remove calculus, tooth extraction, and treatment with cefovecin sodium, a broad-spectrum antibiotic. Microbial diversity measures for samples collected from a cat with advanced periodontal disease with tooth resorption prior to a dental procedure that included cleaning to remove calculus, tooth extraction, and antibiotic treatment. Samples were collected by swabbing the area between the gingival sulcus and the gingival margin and were sequenced using the Illumina MiniSeq. […] At five weeks after, PD richness had increased but PD diversity had decreased, likely driven by a reduction in evenness. At five weeks after, for HA microbes, there were increases in richness, diversity, and evenness, and the PD/HA ratios for richness and diversity had decreased. Thus, this cat's oral microbiome began to show signs of recovery in a sample collected five weeks later.

[1] = Five weeks after dental cleaning
[2] = Two weeks after dental cleaning

## CO/N=C(/C(=O)N[C@@H]1C(=O)N2C(C(=O)[O-])=C([C@@H]3CCCO3)CS[C@H]12)c1csc(N)n1.[Na+] [cefovecin sodium]
[1]
  PD Evenness: 0.62
  HA Evenness: 0.58
  PD/HA Evenness: 1.07
  PD/HA Diversity: 1.15
  PD/HA Richness: 0.92
  HA Diversity: 1.62
  PD Diversity: 1.86
  Pathobiont Richness: 2
  HA Richness: 25
  PD Richness: 23
[2]
  PD Evenness: 0.74
  HA Evenness: 0.43
  PD/HA Evenness: 1.72
  PD/HA Diversity: 1.95
  PD/HA Richness: 1.46
  HA Diversity: 1.11
  PD Diversity: 2.17
  Pathobiont Richness: 2
  HA Richness: 13
  PD Richness: 19
